From the supplement of paper PMC11061612

Key:
Assay in all cases: Bliss excess, mean over the matrix (fraction); higher = more synergy
[1] = tested on: BC-1 (B-Cell Non-Hodgkin's Lymphoma)
Outline: (§1)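 After 24 hours at 37°C and 5% CO2 in 1536-well plates, cells in DMEM/F12 or RPMI plus 10% FBS received two-drug dose matrices for 72 hours. Viability came from CellTiter-Glo 2.0 luminescence and was scaled as inhibition, anchored at 0 by vehicle wells and at 1 by blank wells. Combination Emax is taken as the second-highest inhibition in the matrix, and Bliss excess as the observed combination effect less EA + EB − EA·EB, with EA and EB the single-agent effects.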

C32 (Melanoma) = tested on: C32 (Melanoma)
Outline: as §1

[2] = tested on: COR-L105 (Lung Adenocarcinoma)
Outline: as §1

DK-MG (Glioblastoma) = tested on: DK-MG (Glioblastoma)
Outline: as §1

[3] = tested on: Daudi (Burkitt's Lymphoma)
Outline: as §1

GCIY (Gastric Carcinoma) = tested on: GCIY (Gastric Carcinoma)
Outline: as §1

[4] = tested on: HT-1197 (Bladder Carcinoma)
Outline: as §1

[5] = tested on: NCI-H1435 (Non-Small Cell Lung Carcinoma)
Outline: as §1

[6] = tested on: NCI-H1944 (Lung Adenocarcinoma)
Outline: as §1

[7] = tested on: NCI-H2170 (Squamous Cell Lung Carcinoma)
Outline: as §1

[8] = tested on: OVKATE (Ovarian Carcinoma)
Outline: as §1

[9] = tested on: RPMI-8402 (T-Lymphoblastic Leukemia)
Outline: as §1

[10] = tested on: RS4-11 (B-Lymphoblastic Leukemia)
Outline: as §1

[11] = tested on: SBC-3 (Small Cell Lung Carcinoma)
Outline: as §1

[12] = tested on: SBC-5 (Small Cell Lung Carcinoma)
Outline: as §1

[13] = tested on: SCC90 (Head and Neck Carcinoma)
Outline: as §1

SK-N-DZ (Neuroblastoma) = tested on: SK-N-DZ (Neuroblastoma)
Outline: as §1

[14] = tested on: SNU-1 (Gastric Carcinoma)
Outline: as §1

[15] = tested on: SUP-HD1 (Hodgkin's Lymphoma)
Outline: as §1

[16] = tested on: SW1463 (Colorectal Carcinoma)
Outline: as §1

SMILES	Bliss excess [1]	Bliss excess (C32 (Melanoma))	Bliss excess [2]	Bliss excess (DK-MG (Glioblastoma))	Bliss excess [3]	Bliss excess (GCIY (Gastric Carcinoma))	Bliss excess [4]	Bliss excess [5]	Bliss excess [6]	Bliss excess [7]	Bliss excess [8]	Bliss excess [9]	Bliss excess [10]	Bliss excess [11]	Bliss excess [12]	Bliss excess [13]	Bliss excess (SK-N-DZ (Neuroblastoma))	Bliss excess [14]	Bliss excess [15]	Bliss excess [16]
Cc1c2c(nn1C)CSCc1cc(n(C)n1)CSc1cc(c3ccccc3c1)OCCCc1c(C(=O)O)n(C)c3c-2c(Cl)ccc13 [AZD5991] + CCN(CCO)CCCOc1ccc2c(Nc3cc(CC(=O)Nc4cccc(F)c4)[nH]n3)ncnc2c1 [AZD2811] (first compound max 1 µM, 7x7, partner max 1 µM)	0.0403	0.05	-0.0986	-0.0543	0.263	-0.0183	-0.0381	0.0411	0.0457	0.0348	-0.09	0.0412	-0.0061	0.0082	0.0523	0.081	0.043	0.0586	0.0311	-0.0905
NC1(C(=O)N[C@@H](CCO)c2ccc(Cl)cc2)CCN(c2ncnc3[nH]ccc23)CC1 [Capivasertib] + CCN(CCO)CCCOc1ccc2c(Nc3cc(CC(=O)Nc4cccc(F)c4)[nH]n3)ncnc2c1 [AZD2811] (first compound max 10 µM, 7x7, partner max 1 µM)	-0.0383	0.0477	-0.0523	-0.0447	0.103	-0.0578	0.016	-0.0384	0.101	0.0135	-0.0367	-0.0421	-0.0504	0.059	0.0526	0.0332	0.0051	0.0214	-0.0307	-0.0239
COc1cccc(OCCCN)c1-c1cc(Nc2cnc(C#N)cn2)n[nH]1 [Prexasertib] + O=C(c1cc(Cc2n[nH]c(=O)c3ccccc23)ccc1F)N1CCN(C(=O)C2CC2)CC1 [Olaparib] (first compound max 1 µM, 7x7, partner max 10 µM)	-0.0108	-0.0459	-0.0135	0.0193	-0.058	-0.0476	-0.044	0.0045	-0.0498	-0.106	-0.062	-0.0292	-0.0025	-0.0544	-0.0376	-0.095	-0.0511	-0.0533	-0.091	-0.0549
Cc1c2c(nn1C)CSCc1cc(n(C)n1)CSc1cc(c3ccccc3c1)OCCCc1c(C(=O)O)n(C)c3c-2c(Cl)ccc13 [AZD5991] + C=CCn1c(=O)c2cnc(Nc3ccc(N4CCN(C)CC4)cc3)nc2n1-c1cccc(C(C)(C)O)n1 [AZD1775] (first compound max 1 µM, partner max 1 µM)	-0.0314	0.0452	-0.0025	0.0168	-0.0124	0.0035	-0.0866	0.0568	-0.0472	-0.0274	-0.0123	-0.0295	0.0066	-0.0043	0.0501	-0.0001	0.0464	-0.0237	-0.106	-0.0158
NC1(C(=O)N[C@@H](CCO)c2ccc(Cl)cc2)CCN(c2ncnc3[nH]ccc23)CC1 [Capivasertib] + Cn1cnc2c(F)c(Nc3ccc(Br)cc3Cl)c(C(=O)NOCCO)cc21 [Selumetinib] (first compound max 10 µM, 7x7, partner max 10 µM)	0.0898	0.0905	-0.0333	0.0686	-0.0138	-0.0245	0.0646	0.0234	0.0543	0.0047	0.0215	-0.037	-0.016	-0.0353	0.0801	0.0331	0.0254	0.0764	-0.0141	-0.0255
COc1nnc2ccc(N3CCC(c4ccc(OCCN5CCN(C)C(=O)[C@H]5C)cc4)CC3)nn12 [AZD5153] + Cn1cnc2c(F)c(Nc3ccc(Br)cc3Cl)c(C(=O)NOCCO)cc21 [Selumetinib] (first compound max 1 µM, 7x7, partner max 10 µM)	-0.036	0.0709	0.0622	-0.032	-0.059	0.0023	0.108	0.0113	-0.0008	-0.0712	-0.0413	-0.0608	-0.0454	-0.0811	0.001	0.098	0.0017	0.063	-0.0019	0.0243
CCN(CCO)CCCOc1ccc2c(Nc3cc(CC(=O)Nc4cccc(F)c4)[nH]n3)ncnc2c1 [AZD2811] + C=CCn1c(=O)c2cnc(Nc3ccc(N4CCN(C)CC4)cc3)nc2n1-c1cccc(C(C)(C)O)n1 [AZD1775] (first compound max 1 µM, partner max 1 µM)	-0.031	-0.0354	-0.0415	0.0373	0.0733	0.0503	-0.114	-0.0181	0.0422	0.051	-0.0565	-0.0544	-0.0523	0.11	0.114	0.0258	-0.0289	0.0679	-0.0238	-0.0023
CC(=O)c1c(C)c2cnc(Nc3ccc(N4CCNCC4)cn3)nc2n(C2CCCC2)c1=O [Palbociclib] + Cc1c2c(nn1C)CSCc1cc(n(C)n1)CSc1cc(c3ccccc3c1)OCCCc1c(C(=O)O)n(C)c3c-2c(Cl)ccc13 [AZD5991] (first compound max 10 µM, 7x7, partner max 1 µM)	-0.0028	-0.0069	-0.0088	-0.0018	0.0059	-0.0198	-0.0289	-0.0308	0.0187	-0.0189	-0.0382	0.0046	-0.0519	-0.043	-0.0171	-0.0224	0.0655	-0.0691	-0.0704	-0.0666
CC1(C)CCC(CN2CCN(c3ccc(C(=O)NS(=O)(=O)c4ccc(NCC5CCOCC5)c([N+](=O)[O-])c4)c(Oc4cnc5[nH]ccc5c4)c3)CC2)=C(c2ccc(Cl)cc2)C1 [Venetoclax] + C[C@@H](Nc1cc(F)cc(F)c1)c1cc(C(=O)N(C)C)cc2c(=O)cc(N3CCOCC3)oc12 [AZD8186] (first compound max 1 µM, 7x7, partner max 3 µM)	-0.0157	-0.0207	-0.0359	-0.0425	-0.0238	-0.0047	-0.0785	0.0012	-0.034	-0.0739	-0.0334	0.0028	-0.0083	-0.034	-0.022	0.048	0.0144	-0.0157	-0.025	-0.0393
CS(=O)(=O)CCNCc1ccc(-c2ccc3ncnc(Nc4ccc(OCc5cccc(F)c5)c(Cl)c4)c3c2)o1 [Lapatinib] + C[C@@H](Oc1cc(-c2cnn(C3CCNCC3)c2)cnc1N)c1c(Cl)ccc(F)c1Cl [Crizotinib] (first compound max 10 µM, 7x7, partner max 10 µM)	-0.0557	-0.0067	-0.004	-0.0556	-0.0179	-0.003	-0.0307	0.061	0.015	-0.0026	-0.0448	-0.0375	-0.0183	-0.0761	0.0601	0.0827	-0.0702	0.0039	-0.0579	0.0138
CC1(C)CCC(CN2CCN(c3ccc(C(=O)NS(=O)(=O)c4ccc(NCC5CCOCC5)c([N+](=O)[O-])c4)c(Oc4cnc5[nH]ccc5c4)c3)CC2)=C(c2ccc(Cl)cc2)C1 [Venetoclax] + C[C@@H]1COCCN1C2=NC(=NC(=C2)C3(CC3)[S@](=N)(=O)C)C4=C5C=CNC5=NC=C4 [AZD6738] (first compound max 1 µM, 7x7, partner max 10 µM)	0.0087	-0.0229	-0.0429	-0.0914	-0.0278	-0.0468	-0.0033	-0.014	-0.0023	-0.0019	-0.0291	0.0103	0.0104	-0.0906	-0.0486	-0.014	-0.0396	-0.0114	-0.0605	-0.06
CC1(C)CCC(CN2CCN(c3ccc(C(=O)NS(=O)(=O)c4ccc(NCC5CCOCC5)c([N+](=O)[O-])c4)c(Oc4cnc5[nH]ccc5c4)c3)CC2)=C(c2ccc(Cl)cc2)C1 [Venetoclax] + Cc1cc2ncnn2cc1Nc1ncc2c(n1)n(C1CCOCC1)c(=O)n2C [AZD7648] (first compound max 1 µM, 7x7, partner max 10 µM)	0.017	-0.0219	-0.0512	-0.0355	0.004	-0.0232	-0.0208	-0.0088	0.0189	-0.0109	-0.113	0.0235	-0.0149	-0.0729	0.0086	0.118	-0.0112	-0.0408	-0.0659	-0.0479
COc1cccc(OCCCN)c1-c1cc(Nc2cnc(C#N)cn2)n[nH]1 [Prexasertib] + Cc1cc2ncnn2cc1Nc1ncc2c(n1)n(C1CCOCC1)c(=O)n2C [AZD7648] (first compound max 1 µM, 7x7, partner max 10 µM)	-0.0239	-0.004	-0.0549	0.0253	0.0017	-0.0648	-0.0206	0.0115	-0.0028	-0.0074	-0.0853	-0.0127	-0.0159	-0.0512	-0.0116	-0.036	-0.0049	-0.0198	-0.0443	-0.0161
NC1(C(=O)N[C@@H](CCO)c2ccc(Cl)cc2)CCN(c2ncnc3[nH]ccc23)CC1 [Capivasertib] + COc1nnc2ccc(N3CCC(c4ccc(OCCN5CCN(C)C(=O)[C@H]5C)cc4)CC3)nn12 [AZD5153] (first compound max 10 µM, 7x7, partner max 1 µM)	-0.0042	0.0434	0.0024	0.0534	0.045	-0.0265	0.0255	-0.025	-0.0124	0.0383	-0.0368	-0.0484	0.089	-0.0135	0.0351	0.0079	0.0675	0.0177	-0.047	-0.0021
